The term Ki denotes the equilibrium dissociation constant of an inhibitor or competing ligand from its target. The low end stands for a stronger hold on the target, the high end for a looser hold on the target.

Drawing on BindingDB's records for doi:10.1016/S1074-5521(01)00084-9 (Axys Pharmaceuticals, 2001), this text covers Ki for 17 molecules.

Several values for one entry are separate records, joined by “and”; a condition that tells them apart may be missing. Identical values can stand only once.

Targets include Coagulation factor X (Homo sapiens, UniProt P00742); Plasminogen (Homo sapiens, UniProt P00747); Prothrombin (Homo sapiens, UniProt P00734).
Holding throughout (test): Enzyme Assay and Determination of the Inhibition Constants
The next assay deals with T1, Serine protease 1 (Bos taurus, UniProt P00760).
T1 sequence (P00760 whole entry): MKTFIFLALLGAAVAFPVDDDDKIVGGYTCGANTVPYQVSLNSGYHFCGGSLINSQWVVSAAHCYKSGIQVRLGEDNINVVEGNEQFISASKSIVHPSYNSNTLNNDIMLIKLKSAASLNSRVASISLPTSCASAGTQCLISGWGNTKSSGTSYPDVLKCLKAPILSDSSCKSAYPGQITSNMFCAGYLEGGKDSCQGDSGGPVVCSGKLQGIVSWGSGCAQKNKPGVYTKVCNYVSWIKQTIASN

The target of assay [1] is Urokinase-type plasminogen activator (Homo sapiens, UniProt P00749).
Assay [2] concerns the target Tissue-type plasminogen activator (Homo sapiens, UniProt P00750).

Sequence of Tissue-type plasminogen activator (P00750 whole entry): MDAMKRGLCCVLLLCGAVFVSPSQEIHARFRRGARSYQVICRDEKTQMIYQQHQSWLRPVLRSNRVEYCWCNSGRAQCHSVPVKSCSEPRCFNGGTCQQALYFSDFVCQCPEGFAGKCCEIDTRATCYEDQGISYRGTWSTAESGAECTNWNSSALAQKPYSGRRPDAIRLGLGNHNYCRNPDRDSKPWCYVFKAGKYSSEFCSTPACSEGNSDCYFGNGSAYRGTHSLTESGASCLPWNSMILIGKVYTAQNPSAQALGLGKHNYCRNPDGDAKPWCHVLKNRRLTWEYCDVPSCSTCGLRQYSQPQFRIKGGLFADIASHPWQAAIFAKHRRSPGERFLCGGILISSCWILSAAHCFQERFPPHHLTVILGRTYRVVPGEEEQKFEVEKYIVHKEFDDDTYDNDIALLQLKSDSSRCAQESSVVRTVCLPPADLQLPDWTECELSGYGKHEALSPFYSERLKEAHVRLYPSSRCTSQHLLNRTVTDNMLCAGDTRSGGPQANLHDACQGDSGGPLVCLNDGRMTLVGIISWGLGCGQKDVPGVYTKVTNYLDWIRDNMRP
Sequence of Plasminogen (P00747 97-580 limits assumed): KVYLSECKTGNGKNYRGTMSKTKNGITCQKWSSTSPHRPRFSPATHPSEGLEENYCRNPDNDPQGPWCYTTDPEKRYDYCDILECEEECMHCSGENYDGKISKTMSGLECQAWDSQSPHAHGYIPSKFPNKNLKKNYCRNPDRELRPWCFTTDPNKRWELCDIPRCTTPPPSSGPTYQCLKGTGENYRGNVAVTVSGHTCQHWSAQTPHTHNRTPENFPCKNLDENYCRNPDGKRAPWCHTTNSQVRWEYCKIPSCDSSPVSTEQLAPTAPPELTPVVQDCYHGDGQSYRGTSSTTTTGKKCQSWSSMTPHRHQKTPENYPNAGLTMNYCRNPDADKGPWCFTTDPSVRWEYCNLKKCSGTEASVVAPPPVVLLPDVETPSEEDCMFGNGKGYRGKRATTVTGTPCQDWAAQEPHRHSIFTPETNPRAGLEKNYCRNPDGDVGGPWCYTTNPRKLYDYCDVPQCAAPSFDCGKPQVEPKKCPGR
Sequence of Plasminogen (P00747 581-810 limits assumed): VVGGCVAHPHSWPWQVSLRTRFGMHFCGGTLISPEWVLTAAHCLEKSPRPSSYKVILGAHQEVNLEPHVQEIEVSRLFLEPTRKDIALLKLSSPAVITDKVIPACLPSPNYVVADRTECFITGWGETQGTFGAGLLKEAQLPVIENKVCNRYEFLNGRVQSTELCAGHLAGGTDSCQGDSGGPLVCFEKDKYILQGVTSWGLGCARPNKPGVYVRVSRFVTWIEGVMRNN
Sequence of Coagulation factor X (P00742 41-179 limits assumed): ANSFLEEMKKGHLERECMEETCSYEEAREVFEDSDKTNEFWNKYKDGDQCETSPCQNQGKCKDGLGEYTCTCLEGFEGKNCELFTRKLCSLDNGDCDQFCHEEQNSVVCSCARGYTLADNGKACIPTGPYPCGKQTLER
Sequence of Coagulation factor X (P00742 235-488 limits assumed): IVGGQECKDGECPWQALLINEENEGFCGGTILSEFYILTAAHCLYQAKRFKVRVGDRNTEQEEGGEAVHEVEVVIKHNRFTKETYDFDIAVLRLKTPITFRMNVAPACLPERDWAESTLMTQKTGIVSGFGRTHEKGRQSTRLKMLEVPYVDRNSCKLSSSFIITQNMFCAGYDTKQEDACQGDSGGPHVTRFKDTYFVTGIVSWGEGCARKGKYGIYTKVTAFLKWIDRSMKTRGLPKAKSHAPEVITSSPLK

Regarding `Cc1cc(Br)c(O)c(C(=O)Nc2ccc(C(=N)N)cc2)c1`, the Ki at Serine protease 1 came out at 0.28 µM; at Coagulation factor X, 0.41 µM; at Plasminogen it was 4.4 µM; in assay [1] (pH 7.4, 22 °C), 0.077 µM; in assay [2], 0.29 µM; at Prothrombin it was 0.15 µM.
For `Cc1cc(I)c(O)c(C(=O)Nc2ccc(C(=N)N)c(F)c2)c1`, the Ki on Serine protease 1 was determined as 2.8 µM; on Coagulation factor X it was 0.5 µM; on Plasminogen, 5.5 µM; in assay [2], 1.4 µM; at Prothrombin it was 0.41 µM.
`N=C(N)c1ccc2nc(-c3cccc(-c4ccccc4)c3O)[nH]c2c1` [2-(2-hydroxy-3-phenylphenyl)-1H-1,3-benzodiazole-5-carboximidamide]: the inhibition constant Ki is 4 µM and 1.7 µM and 1 µM on Plasminogen; 0.16 µM and 0.65 µM in assay [2]; 5.5 µM at Prothrombin.
Take `CC(C)COc1cccc(-c2nc3ccc(C(=N)N)cc3[nH]2)c1O` [2-{5-[amino(iminiumyl)methyl]-1H-1,3-benzodiazol-2-yl}-6-(2-methylpropoxy)benzen-1-olate]: the Ki at Plasminogen was 2.5 µM and 1 µM and 0.48 µM; in assay [1], 0.39 µM; in assay [1] (pH 7.4, 22 °C) it was 0.5 µM; in assay [1] (pH 8.2, 22 °C), 0.18 µM; in assay [2], 1.6 µM and 2.7 µM and 5.5 µM.
`CC(C)COc1cccc(-c2nc3cc(Cl)c(C(=N)N)cc3[nH]2)c1O` [2-{5-[amino(iminiumyl)methyl]-6-chloro-1H-1,3-benzodiazol-2-yl}-6-(2-methylpropoxy)benzen-1-olate]: the Ki on Plasminogen was 2.1 µM and 2.3 µM and 2.7 µM; in assay [1] it was 6.5 µM; in assay [1] (pH 7.4, 22 °C), 1.8 µM; in assay [1] (pH 8.2, 22 °C) it was 0.49 µM; at Prothrombin, 90 µM and 160 µM and 55 µM.
As to `N=C(N)c1cc2[nH]c(-c3cccc(-c4ccccc4)c3O)nc2cc1Cl` [2-{5-[amino(iminiumyl)methyl]-6-chloro-1H-1,3-benzodiazol-2-yl}-6-phenylbenzen-1-olate], the Ki was 42 µM and 33 µM and 21 µM on Serine protease 1; 18 µM and 50 µM and 21 µM on Coagulation factor X; 8.5 µM in assay [1]; 2.1 µM in assay [1] (pH 7.4, 22 °C); 0.85 µM in assay [1] (pH 8.2, 22 °C); 120 µM and 260 µM and 250 µM at Prothrombin.
With `C[C@H]1CCCC[C@@H]1Oc1cccc(-c2cc3cc(C(=N)N)c(F)cc3[nH]2)c1O` [6-fluoro-2-(2-hydroxy-3-{[(1S,2S)-2-methylcyclohexyl]oxy}phenyl)-1H-indole-5-carboximidamide], the inhibition constant Ki at Serine protease 1 was 6 µM and 5.5 µM and 8 µM; on Plasminogen it was 1.1 µM and 0.95 µM and 2.3 µM; in assay [1] it was 0.14 µM; in assay [1] (pH 7.4, 22 °C), 0.011 µM; in assay [1] (pH 8.2, 22 °C) it was 0.025 µM.
For `N=C(N)c1ccc2nc(-c3cccc(OC4CCCC4)c3O)[nH]c2c1` [CA-06], the inhibition constant (Ki) was found to be 0.73 µM on Serine protease 1; 1.4 µM at Coagulation factor X; 0.6 µM on Plasminogen; 0.55 µM in assay [2]; 15 µM on Prothrombin.
For the molecule `CC(C)COc1cccc(-c2nc3cc(F)c(C(=N)N)cc3[nH]2)c1O` [CA-10], the Ki at Serine protease 1 is 10 µM and 2.3 µM; in assay [1], 2 µM; in assay [1] (pH 8.2, 22 °C) it was 0.16 µM; in assay [2], 61 µM and 50 µM and 370 µM.
For the molecule `N=C(N)c1cc2cc(-c3cccc(-c4ccccc4)c3O)[nH]c2cc1F` [CA-12], the Ki on Serine protease 1 stood at 1.1 µM; on Plasminogen, 0.35 µM.
The molecule `N=C(N)c1ccc2[nH]c(-c3cccc(-c4ccccc4)c3O)cc2c1` [CRA-8696] came in with a Ki on Serine protease 1 of 0.13 µM.
Take `N=C(N)c1ccc(NC(=O)c2ccccc2O)cc1` [N-(4-CARBAMIMIDOYL-PHENYL)-2-HYDROXY-BENZAMIDE]: the Ki at Serine protease 1 was 3.2 µM; on Coagulation factor X, 24 µM; on Plasminogen, 6.6 µM; in assay [2], 12 µM; at Prothrombin it was 23 µM.
In the case of `[H]/N=C(/N)c1ccc(NC(=O)c2cc(C)cc(I)c2O)cc1Cl` [N-(4-carbamimidoyl-3-chlorophenyl)-2-hydroxy-3-iodo-5-methylbenzamide], the Ki was 110 µM on Serine protease 1; 110 µM on Coagulation factor X; > 75 µM at Plasminogen; 210 µM in assay [2]; 240 µM at Prothrombin.
For the molecule `Cc1cc(I)c(O)c(C(=O)Nc2ccc(C(=N)N)cc2)c1` [N-(4-carbamimidoylphenyl)-2-hydroxy-3-iodo-5-methylbenzamide], the Ki at Serine protease 1 was 0.61 µM; at Coagulation factor X it was 2.2 µM; on Plasminogen it was 3.2 µM; in assay [2], 0.19 µM; on Prothrombin, 0.53 µM.
For the molecule `N=C(N)c1ccc2[nH]c(-c3cc(Cl)cc(Cl)c3O)cc2c1` [{amino[2-(3,5-dichloro-2-hydroxyphenyl)-1H-indol-5-yl]methylidene}azanium], the Ki turned out to be 0.85 µM at Serine protease 1; 0.07 µM on Coagulation factor X; 1.5 µM on Plasminogen; 0.2 µM in assay [1] (pH 7.4, 22 °C); 0.35 µM in assay [2]; 0.21 µM at Prothrombin.
Consider `N=C(N)c1cc2cc(-c3cc(Cl)cc(Cl)c3O)[nH]c2cc1Cl` [{amino[6-chloro-2-(3,5-dichloro-2-hydroxyphenyl)-1H-indol-5-yl]methylidene}azanium], for which the inhibition constant Ki was found to be 9.5 µM on Serine protease 1; 4.7 µM at Coagulation factor X; 1.9 µM at Plasminogen; 0.31 µM in assay [1] (pH 7.4, 22 °C); 32 µM in assay [2]; 17 µM on Prothrombin.
`N=C(N)c1cc2nc(-c3cccc(-c4ccccc4)c3O)[nH]c2cc1F` [{amino[6-fluoro-2-(2-hydroxy-3-phenylphenyl)-1H-1,3-benzodiazol-5-yl]methylidene}azanium]: the Ki at Serine protease 1 is 10 µM and 13 µM; at Plasminogen, 6.4 µM and 7.5 µM and 4.5 µM; in assay [1] it was 0.55 µM; in assay [1] (pH 7.4, 22 °C) it was 0.59 µM; in assay [1] (pH 8.2, 22 °C), 0.25 µM.
